In PubChem BioAssay AID2060485 (Molecular Pharmacology Branch, DTP, NCI, 2025):
Values joined by “and” are separate entries in the source; they are usually repeats but may differ in a detail not shown here. Equal entries are not always repeated.

Test system: A375 multi-cell spheroids with HUVEC/MSC, viability
Test: Anticancer human tumor A375 cell line growth inhibition [GQUAD];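 note: spheroids exposed to compounds for seven days before readout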
Conditions: for viability, T/C: stronger effect = lower value
From the text: DNA G-quadruplex Stabilizer Agents in Combinations in Complex Spheroids
A high-throughput screen of multi-cell type tumor spheroids was designed to identify active combinations of DNA G-quadruplex stabilizer agents and targeted small molecules. Complex spheroids include a stromal component modeled by human endothelial cells (HUVEC) and fibroblasts modeled by human mesenchymal stem cells (MSCs). The concentration ranges selected for each drug and investigational agent were based upon clinically achievable concentrations if the clinical Cmax of the agent was known.
Compounds. The drugs and investigational agents: pidnarulex (CX-5461; NSC782164), APTO-253 (NSC789042), BRACO-19 (NSC847499), peposertib (NSC802822), ceralasertib (NSC780249), elimusertib (NSC800525), camonsertib (NSC841442), AZD-1390 (NSC803789), olaparib (NSC753686), talazoparib (NSC767125), ART-558 (NSC835418), sotorasib (NSC818433), MRTX-1133 (NSC836407), SN-38 (NSC673596), topotecan (NSC609699), etoposide (NSC141540), doxorubicin (NSC123127), gemcitabine (NSC613327), 5-fluorouracil (NSC19893), paclitaxel (NSC125973), vemurafenib (NSC761431), panobinostat (NSC761190), R-306465 (JNJ-16241199; NSC773264), adavosertib (NSC754352), TP-3654 (NSC805149), carboplatin (NSC241240), KSQ-4279 (NSC840948), and staurosporine (NSC755774) were obtained from the National Cancer Institute (NCI) Developmental Therapeutics Program Chemical Repository (34). The FDA-approved anticancer drug set is available from the NCI Developmental Therapeutics Program. […] The stock solutions were prepared in dimethyl sulfoxide (DMSO, Sigma-Aldrich, St. Louis, MO, cat. D2650) at 800-fold the tested concentration and stored at -70 degrees C prior to their use. All drugs and investigational agents were tested over a range starting from a high concentration at or near the clinical Cmax and decreasing in half-log increments. If the clinical Cmax for an agent had not been determined, the highest concentration tested was 10 microM.
2.3 Cell Culture. All cells were maintained in an incubator at 37 degrees C and 5% CO2 with 95% humidity. The PDC lines were cultured according to standard operating procedures established by the NCI PDMR. All PDCs were thawed and cultured in Matrigel-coated flasks prepared with a working solution of 1X Ham's F-12 nutrient mix, without supplementation (Invitrogen, cat. 11765054), 100 U/mL penicillin-streptomycin (Invitrogen, cat. 15140122), and 2.5% Matrigel (Corning Inc., cat. 354248) for the first three passages. The 857933-349-R-J2-PDC line was cultured in 6C/Colon 1B media, which includes advanced DMEM/F-12 (Thermo Fisher Scientific, cat. 12634028), 10 mM HEPES (Thermo Fisher Scientific, cat. 15630080), 1X GlutaMAX supplement (Thermo Fisher Scientific, cat. 35050061), 0.1 mg/mL primocin (InvivoGen, cat. ant-pm-2), 10% defined fetal bovine serum, heat inactivated (HyClone Laboratories Inc., cat. SH30070.03HI), 50% L-WRN conditioned media (ATCC, cat. CRL-3276), 1.25 mM N-Acetyl-L-cysteine (Sigma-Aldrich, cat. A9165), 10 mM nicotinamide (Sigma-Aldrich, cat. N0636), 1X B-27 supplement (Thermo Fisher Scientific, cat. 17504044), 1X N-2 supplement (Thermo Fisher Scientific, cat. 17502048), 10 microM Y-27632 dihydrochloride (Tocris Bioscience, cat. 1254), and 50 ng/mL human EGF recombinant protein (Thermo Fisher Scientific, cat. PHG0311). The 485176-168-R4-J1-PDC line was cultured in Panc media, which includes all 6C/Colon 1B media components plus 100 ng/mL human FGF-10 (Thermo Fisher Scientific, cat. 100-26), 500 nM SB-431542 (Selleckchem, cat. S1067), and gastrin (Tocris, cat. 3006).
[…]

Compound | viability, T/C (compound 0.0316 µM) | viability, T/C (compound 0.1 µM) | viability, T/C (compound 0.316 µM) | viability, T/C (compound 1 µM) | viability, T/C (compound 3.16 µM) | viability, T/C (compound 10 µM) | IC50 (curve of compound) | viability, T/C (compound 0.000999 µM) | viability, T/C (compound 0.00316 µM) | viability, T/C (compound 0.00999 µM) | viability, T/C (compound 0.0999 µM) | IC50 (compound alone, run of 03/26/2024) [nM]
C=CC(=O)N1CCN(c2nc(=O)n(-c3c(C)ccnc3C(C)C)c3nc(-c4c(O)cccc4F)c(F)cc23)C(C)C1 (stereo unspecified) | 94.3% and 100% and 93.8% | 105% and 91.8% and 94.4% | 95.2% and 94.2% and 99% | 101% and 90.2% and 99.8% | 109% and 99.3% and 126% | 101% and 119% and 111% | > 10000 nM |  |  |  |  | 
CC(C)n1c(=O)n(C)c2cnc3cc(F)c(-c4ccc(OCCCN5CCCCC5)nc4)cc3c21 | 103% and 99.6% and 97.1% | 92.8% and 105% and 111% | 96.4% and 103% and 99.7% | 97.4% and 108% and 98.7% | 102% and 114% and 109% | 94.5% and 85.4% and 97.5% | > 10000 nM |  |  |  |  | 
CC1COCCN1c1cc(-c2ccnn2C)c2ccnc(-c3ccn[nH]3)c2n1 (stereo unspecified) | 106% and 103% and 105% | 87.6% and 77% and 93.2% | 75.4% and 49.7% and 69.2% | 38.9% and 25% and 31.8% | 13.2% and 9.89% and 11.6% | 11.8% and 10.5% and 11.2% | 677 nM and 294 nM and 561 nM |  |  |  |  | 
CC1COCCN1c1cc(C2(O)CC3CCC(C2)O3)c2cnn(-c3ccn[nH]3)c2n1 (stereo unspecified) | 117% and 107% and 101% | 73.7% and 86.2% and 65.1% | 47.9% and 53.4% and 35.1% | 19.1% and 20.1% and 14.9% | 12.1% and 10.6% and 9.5% | 8.52% and 8.96% and 7.33% | 250 nM and 334 nM and 176 nM |  |  |  |  | 
CC1COCCN1c1cc(C2(S(C)(=N)=O)CC2)nc(-c2ccnc3[nH]ccc23)n1 (stereo unspecified) | 103% and 102% | 97.6% and 102% | 104% and 98.5% | 109% and 103% | 54.7% and 63.4% | 42.4% and 36.1% | 4900 nM and 5560 nM |  |  |  |  | 
CC[C@@]1(O)C(=O)OCc2c1cc1n(c2=O)Cc2cc3c(CN(C)C)c(O)ccc3nc2-1 | 80.7% and 57% and 63% |  | 14.6% and 9.66% and 10.5% |  |  |  | 59.3 nM and 39.5 nM and 45.8 nM | 104% and 102% and 101% | 105% (2×) and 93.9% | 108% and 96.2% and 102% | 24.7% and 19.6% and 22% | 
CCc1c2c(nc3ccc(O)cc13)-c1cc3c(c(=O)n1C2)COC(=O)[C@]3(O)CC | 18% and 14.4% and 15% |  | 0.56% and 1.25% and 0.77% |  |  |  | < 0.999 nM | 45.1% and 41.4% and 38.3% | 17.9% and 15.3% and 17.3% | 15.6% and 10.1% and 12.2% | 4.97% and 4.55% and 5.97% | 
CN(C)c1ccc(Nc2c3ccc(NC(=O)CCN4CCCC4)cc3nc3cc(NC(=O)CCN4CCCC4)ccc23)cc1 | 98.8% [middle of 12 runs] | 103% [middle of 12 runs] | 104% [middle of 12 runs] | 101% [middle of 12 runs] | 106% [middle of 12 runs] | 102% [middle of 12 runs] |  |  |  |  |  | > 10000
